In ChEMBL document CHEMBL5346955, “Discovery of HPG1860, a Structurally Novel Nonbile Acid FXR Agonist Currently in Clinical Development for the Treatment of Nonalcoholic Steatohepatitis” (J Med Chem, 2023):
Converted amounts (≈) assume the structure as drawn. One block for each compound: values may come before it. The source made the active and inactive calls. No cut-off for these calls is given here.

Tests used:
Bile acid receptor [1] = target: T1, Bile acid receptor (Homo sapiens, UniProt Q96RI1); test: Agonist activity at human GAL4-FXR-LBD expressed in HEK293T cells assessed as transcriptional activity measured after 16 to 20 hrs by luciferase reporter gene assay; format: cell-based
T1 sequence (Q96RI1 whole entry): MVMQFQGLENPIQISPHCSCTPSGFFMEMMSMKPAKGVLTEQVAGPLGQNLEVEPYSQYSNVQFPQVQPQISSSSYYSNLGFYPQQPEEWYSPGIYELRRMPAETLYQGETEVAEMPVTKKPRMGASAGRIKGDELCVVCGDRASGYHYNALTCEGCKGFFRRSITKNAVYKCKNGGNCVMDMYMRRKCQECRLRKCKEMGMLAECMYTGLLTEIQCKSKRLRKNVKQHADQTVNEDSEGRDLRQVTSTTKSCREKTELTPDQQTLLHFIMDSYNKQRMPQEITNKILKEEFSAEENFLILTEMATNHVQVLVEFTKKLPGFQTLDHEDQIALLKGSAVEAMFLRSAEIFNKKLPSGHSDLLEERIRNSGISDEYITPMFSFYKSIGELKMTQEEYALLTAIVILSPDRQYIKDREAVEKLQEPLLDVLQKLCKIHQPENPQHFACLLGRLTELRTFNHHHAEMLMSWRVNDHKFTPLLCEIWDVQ

Bile acid receptor [2] = target: T1, Bile acid receptor; test: Agonist activity at GST-tagged human FXR-LBD in presence of luorescein-SRC2-2 coactivator peptide by TR-FRET assay
[3] = Induction of BSEP gene expression in C57BL/6J mouse liver assessed as fold increase at 3 mg/kg, po measured after 12 hr by RT-qPCR analysis; format: functional
[4] = Tmax in Sprague-Dawley rat at 9 mg/kg, po measured after 12 hrs by LC-MS/MS analysis; format: ADME, organism-based; conditions: in vivo
[5] = AUC (0 to t) in Balb/c mouse at 5 mg/kg, po measured after 12 hrs by LC-MS/MS analysis; format: ADME, organism-based; parameters: dose 5 mg/kg, time 12 hrs, route po; conditions: in vivo
Mus musculus [6] = test: Anti-nonalcoholic steatohepatitis activity against ccl4-induced C57BL/6J mouse model assessed as decrease in AST level in liver at 1 to 10 mg/kg, po qd treated for 28 days; format: functional, organism-based; conditions: dose 1-10 mg/kg, time 28.0 day
[7] = Volume of distribution at steady state in Balb/c mouse at 1 mg/kg, iv measured after 5 mins by LC-MS/MS analysis; format: ADME, organism-based; conditions: in vivo, read-out: Vdss
[8] = Metabolic stability in cynomolgus monkey liver microsomes assessed as half life at 1 uM measured upto 120 mins by UPLC/MS/MS analysis; format: ADME, Macaca fascicularis, Microsome
[9] = Induction of FGF15 gene expression in C57BL/6J mouse ileum assessed as fold increase at 3 mg/kg, po measured after 4 hr by RT-qPCR analysis relative to control; format: functional
Mus musculus [10] = test: Anti-nonalcoholic steatohepatitis activity against ccl4-induced C57BL/6J mouse model assessed as improvement in liver inflammation at 1 to 10 mg/kg, po qd treated for 28 days; format: functional, organism-based; conditions: dose 1-10 mg/kg, time 28.0 day
Mus musculus [11] = test: Anti-nonalcoholic steatohepatitis activity against ccl4-induced C57BL/6J mouse model assessed as reduction total cholesterol in serum at 1 to 10 mg/kg, po qd treated for 28 days; format: functional, organism-based; conditions: dose 1-10 mg/kg, time 28.0 day
[12] = Tmax in Balb/c mouse at 5 mg/kg, po measured after 12 hrs by LC-MS/MS analysis; format: ADME, organism-based; conditions: in vivo
[13] = Metabolic stability in dog liver microsomes assessed as half life at 1 uM measured upto 120 mins by UPLC/MS/MS analysis; format: ADME, Canis lupus familiaris, Microsome
[14] = AUC (0 to t) in Beagle dog at 3 mg/kg, po measured after 12 hrs by LC-MS/MS analysis; format: ADME, organism-based, Canis lupus familiaris; parameters: dose 3 mg/kg, time 12 hrs, route po; conditions: in vivo
[15] = Toxicity in C57BL/6J mouse assessed as change in body weight at 1 to 10 mg/kg, po qd; format: organism-based; conditions: in vivo, dose 1-10 mg/kg
[16] = Half life in Balb/c mouse at 5 mg/kg, po measured after 12 hrs by LC-MS/MS analysis; format: ADME, organism-based; conditions: in vivo
[17] = AUC (0 to t) in Balb/c mouse at 1 mg/kg, iv measured after 5 mins by LC-MS/MS analysis; format: ADME, organism-based; parameters: time 5 min, dose 1 mg/kg, route iv; conditions: in vivo
[18] = Induction of SHP gene expression in C57BL/6J mouse ileum assessed as fold increase at 3 mg/kg, po measured after 4 hr by RT-qPCR analysis relative to control; format: functional
[19] = Cmax in Balb/c mouse at 5 mg/kg, po measured after 12 hrs by LC-MS/MS analysis; format: ADME, organism-based; parameters: dose 5 mg/kg, time 12 hrs, route po; conditions: in vivo
[20] = Drug metabolism in dog assessed as taurine/glycine conjugates in plasma at 50 mg/kg, po; format: ADME, organism-based, Canis lupus familiaris; conditions: in vivo
[21] = Half life in Sprague-Dawley rat at 9 mg/kg, po measured after 12 hrs by LC-MS/MS analysis; format: ADME, organism-based; conditions: in vivo
[22] = AUC (0 to t) in Beagle dog at 1 mg/kg, iv measured after 5 mins by LC-MS/MS analysis; format: ADME, organism-based, Canis lupus familiaris; parameters: dose 1 mg/kg, time 5 min, route iv; conditions: in vivo
[23] = Metabolic stability in human liver microsomes assessed as half life at 1 uM measured upto 120 mins by UPLC/MS/MS analysis; format: ADME, Microsome
[24] = Oral bioavailability in Sprague-Dawley rat at 9 mg/kg measured after 12 hrs by LC-MS/MS analysis; format: ADME, organism-based; conditions: in vivo
Mus musculus [25] = test: Anti-nonalcoholic steatohepatitis activity against ccl4-induced C57BL/6J mouse model assessed as improvement in fibrosis at 1 to 10 mg/kg, po qd treated for 28 days; format: functional, organism-based; conditions: dose 1-10 mg/kg, time 28.0 day
[26] = AUC (0 to t) in Sprague-Dawley rat at 3 mg/kg, iv measured after 5 mins by LC-MS/MS analysis; format: ADME, organism-based; parameters: time 5 min, dose 3 mg/kg, route iv; conditions: in vivo
[27] = AUC (0 to t) in Sprague-Dawley rat at 9 mg/kg, po measured after 12 hrs by LC-MS/MS analysis; format: ADME, organism-based; parameters: dose 9 mg/kg, time 12 hrs, route po; conditions: in vivo
[28] = Clearance in Beagle dog at 1 mg/kg, iv measured after 5 mins by LC-MS/MS analysis; format: ADME, organism-based, Canis lupus familiaris; conditions: in vivo
Mus musculus [29] = test: Anti-nonalcoholic steatohepatitis activity against ccl4-induced C57BL/6J mouse model assessed as clearance of liver steatosis at 10 mg/kg, po qd treated for 28 days; format: functional; conditions: time 28 day
[30] = Half life in Sprague-Dawley rat at 3 mg/kg, iv measured after 5 mins by LC-MS/MS analysis; format: ADME, organism-based; conditions: in vivo
[31] = Metabolic stability in rat liver microsomes assessed as half life at 1 uM measured upto 120 mins by UPLC/MS/MS analysis; format: ADME, Microsome
[32] = Half life in Beagle dog at 3 mg/kg, po measured after 12 hrs by LC-MS/MS analysis; format: ADME, organism-based, Canis lupus familiaris; conditions: in vivo
[33] = Induction of FGF15 gene expression in C57BL/6J mouse ileum assessed as fold increase at 3 mg/kg, po measured after 1 hr by RT-qPCR analysis relative to control; format: functional
[34] = Solubility of the compound in PBS buffer at pH 7.4; format: physicochemical
[35] = Half life in Beagle dog at 1 mg/kg, iv measured after 5 mins by LC-MS/MS analysis; format: ADME, organism-based, Canis lupus familiaris; conditions: in vivo
[36] = Half life in Balb/c mouse at 1 mg/kg, iv measured after 5 mins by LC-MS/MS analysis; format: ADME, organism-based; conditions: in vivo
[37] = Induction of SHP gene expression in C57BL/6J mouse liver assessed as fold increase at 3 mg/kg, po measured after 1 hr by RT-qPCR analysis; format: functional
Mus musculus [38] = test: Anti-nonalcoholic steatohepatitis activity against ccl4-induced C57BL/6J mouse model assessed as decrease in ALT level in liver at 1 to 10 mg/kg, po qd treated for 28 days; format: functional, organism-based; conditions: dose 1-10 mg/kg, time 28.0 day
Mus musculus [39] = test: Anti-nonalcoholic steatohepatitis activity against ccl4-induced C57BL/6J mouse model assessed as improvement in NAFLD activity score at 1 to 10 mg/kg, po qd treated for 28 days; format: functional, organism-based; conditions: dose 1-10 mg/kg, time 28.0 day
[40] = Clearance in Balb/c mouse at 1 mg/kg, iv measured after 5 mins by LC-MS/MS analysis; format: ADME, organism-based; conditions: in vivo
[41] = Tmax in Beagle dog at 3 mg/kg, po measured after 12 hrs by LC-MS/MS analysis; format: ADME, organism-based, Canis lupus familiaris; conditions: in vivo
[42] = Cmax in Sprague-Dawley rat at 9 mg/kg, po measured after 12 hrs by LC-MS/MS analysis; format: ADME, organism-based; parameters: time 12 hrs, dose 9 mg/kg, route po; conditions: in vivo
[43] = Oral bioavailability in Balb/c mouse at 5 mg/kg measured after 12 hrs by LC-MS/MS analysis; format: ADME, organism-based; conditions: in vivo
[44] = Cmax in Beagle dog at 3 mg/kg, po measured after 12 hrs by LC-MS/MS analysis; format: ADME, organism-based, Canis lupus familiaris; parameters: time 12 hrs, dose 3 mg/kg, route po; conditions: in vivo
[45] = Volume of distribution at steady state in Beagle dog at 1 mg/kg, iv measured after 5 mins by LC-MS/MS analysis; format: ADME, organism-based, Canis lupus familiaris; conditions: in vivo, read-out: Vdss
[46] = Volume of distribution at steady state in Sprague-Dawley rat at 3 mg/kg, iv measured after 5 mins by LC-MS/MS analysis; format: ADME, organism-based; conditions: in vivo

EC50 (Bile acid receptor [1]): 194 nM
EC50 (Bile acid receptor [2]): 28 nM
Compound: COc1cc(C(=O)O)cc2sc(N3CCC(Cc4c(-c5c(Cl)cccc5Cl)noc4C(C)C)CC3)nc12

Tmax [4]: 0.5 h
EC50 (Bile acid receptor [1]): 18 nM
AUC(0-t) at 12 h [5]: 3880 ng·h/mL
Vd [7]: 0.53 L/kg
half-life at 1 µM [8]: 2.57 h
Tmax [12]: 0.25 h
half-life at 1 µM [13]: 3.95 h
AUC(0-t) at 12 h [14]: 8270 ng·h/mL
half-life [16]: 1.52 h
AUC(0-t) at 5 min [17]: 1010 ng·h/mL
Cmax [19]: 3610 ng/mL
Drug metabolism [20]: Metabolite_Notdetected
half-life [21]: 2.1 h
AUC(0-t) at 5 min [22]: 4590 ng·h/mL
half-life at 1 µM [23]: 7.45 h
bioavailability [24]: 52.1%
EC50 (Bile acid receptor [2]): 5 nM
AUC(0-t) at 5 min [26]: 2610 ng·h/mL
AUC(0-t) at 12 h [27]: 4120 ng·h/mL
clearance [28]: 3.63 mL/min/kg
t1/2 [30]: 1.44 h
half-life at 1 µM [31]: 1.93 h
half-life [32]: 9.9 h
solubility [34]: 284 µM (≈ 163 µg/mL)
half-life [35]: 4.07 h
half-life [36]: 1.6 h
clearance [40]: 16.5 mL/min/kg
Tmax [41]: 1 h
Cmax [42]: 1950 ng/mL
bioavailability [43]: 77.2%
Cmax [44]: 1710 ng/mL
Vd [45]: 0.823 L/kg
Vdss [46]: 29.3 L/kg
Compound: COc1cc(C(=O)O)cc2sc(N3CCN(Cc4c(-c5c(Cl)cccc5Cl)noc4C4CC4)C[C@H]3C)nc12
fold change (FC) [3]: 4
Activity (Mus musculus [6]): Active
fold change (FC) [9]: 5
Activity (Mus musculus [10]): Active
Activity (Mus musculus [11]): Active
Activity [15]: Non-Toxic
fold change (FC) [18]: ~30
Activity (Mus musculus [25]): Active
Activity (Mus musculus [29]): 100%
fold change (FC) [33]: 7
fold change (FC) [37]: 12
Activity (Mus musculus [38]): Active
Activity (Mus musculus [39]): Active

EC50 (Bile acid receptor [1]): > 5000 nM
EC50 (Bile acid receptor [2]): > 5000 nM
Compound: COc1cc(C(=O)O)cc2sc(N3CCC(Cc4c(-c5c(Cl)cccc5Cl)noc4C(C)C)C3)nc12 (stereo not drawn)

EC50 (Bile acid receptor [1]): 147 nM
EC50 (Bile acid receptor [2]): 31 nM
Compound: COc1cc(C(=O)O)cc2sc(N3CCN(Cc4c(-c5c(Cl)cccc5Cl)noc4C(C)C)CC3)nc12

EC50 (Bile acid receptor [1]): 124 nM
half-life at 1 µM [8]: 1.14 h
half-life at 1 µM [13]: 0.832 h
half-life at 1 µM [23]: 5.11 h
EC50 (Bile acid receptor [2]): 16 nM
half-life at 1 µM [31]: 1.83 h
Compound: COc1cc(C(=O)O)cc2sc(N3CCN(Cc4c(-c5c(Cl)cccc5Cl)noc4C4CC4)C[C@@H]3C)nc12

EC50 (Bile acid receptor [1]): 1240 nM
Compound: COc1cc(C(=O)O)cc2sc(N3CCN(Cc4c(-c5c(Cl)cccc5Cl)noc4C(C)C)CC34CC4)nc12

EC50 (Bile acid receptor [1]): 256 nM
Compound: CC(C)c1onc(-c2c(Cl)cccc2Cl)c1CN1CCN(c2nc3ccc(C(=O)O)cc3s2)CC1

EC50 (Bile acid receptor [1]): 1190 nM
Compound: CC(C)c1onc(-c2c(Cl)cccc2Cl)c1CN1CCN(c2cc3cc(C(=O)O)ccc3s2)CC1

EC50 (Bile acid receptor [1]): 41 nM
EC50 (Bile acid receptor [2]): 8 nM
Compound: COc1cc(C(=O)O)cc2sc(N3CCN(Cc4c(-c5c(Cl)cccc5Cl)noc4C4CC4)CC3C)nc12 (stereo not drawn)
